In patent US10167262B2, “Herbicidal substituted 3-arylpyrazoles” (FMC CORPORATION, priority 2014, dated 2019):

Tests used:
Experiment in all cases: Test D postemergence controlled growth environment test, plant response rating 0-100
Assay type in all cases: in vivo
[1] = tested on: Italian ryegrass (Lolium multiflorum)
Description: (§1) Seeds of plant species selected from bluegrass (annual bluegrass, Poa annua), blackgrass (Alopecurus myosuroides), canarygrass (Phalaris minor), chickweed (common chickweed, Stellaria media), galium (catchweed bedstraw, Galium aparine), downy bromegrass (Bromus tectorum), field violet (Viola arvensis), green foxtail (Setaria viridis), deadnettle (henbit deadnettle, Lamium amplexicaule), Italian ryegrass (Lolium multiflorum), kochia (Kochia scoparia), lambsquarters (Chenopodium album), oilseed rape (Brassica napus), pigweed (Amaranthus retroflexus), Russian thistle (Salsola kali), spring barley (Hordeum vulgare), spring wheat (Triticum aestivum), wild buckwheat (Polygonum convolvulus), wild mustard (Sinapis arvensis), wild oat (Avena fatua), windgrass (Apera spica-venti), winter barley (Hordeum vulgare), and winter wheat (Triticum aestivum) were planted in pots containing Redi-Earth® planting medium (Scotts Company, 14111 Scottslawn Road, Marysville, Ohio 43041) comprising spaghnum peat moss, vermiculite, wetting agent and starter nutrients and treated with postemergence applications of test chemicals formulated in a non-phytotoxic solvent mixture which included a surfactant. Plants ranged in height from 2 to 18 cm (1- to 4-leaf stage). Treated plants and controls were maintained in a controlled growth environment for 14 days after which time all species were compared to controls and visually evaluated. Plant response ratings, summarized in Table D, are based on a scale of 0 to 100 where 0 is no effect and 100 is complete control. A dash (-) response means no test result.

[2] = tested on: Russian thistle (Salsola kali)
Description: as §1

[3] = tested on: bluegrass (annual bluegrass, Poa annua)
Description: as §1

[4] = tested on: canarygrass (Phalaris minor)
Description: as §1

[5] = tested on: chickweed (common chickweed, Stellaria media)
Description: as §1

[6] = tested on: deadnettle (henbit deadnettle, Lamium amplexicaule)
Description: as §1

[7] = tested on: downy bromegrass (Bromus tectorum)
Description: as §1

[8] = tested on: field violet (Viola arvensis)
Description: as §1

[9] = tested on: galium (catchweed bedstraw, Galium aparine)
Description: as §1

[10] = tested on: green foxtail (Setaria viridis)
Description: as §1

kochia (Kochia scoparia) = tested on: kochia (Kochia scoparia)
Description: as §1

[11] = tested on: lambsquarters (Chenopodium album)
Description: as §1

[12] = tested on: spring barley (Hordeum vulgare)
Description: as §1

[13] = tested on: spring wheat (Triticum aestivum)
Description: as §1

[14] = tested on: wild buckwheat (Polygonum convolvulus)
Description: as §1

[15] = tested on: wild mustard (Sinapis arvensis)
Description: as §1

[16] = tested on: windgrass (Apera spica-venti)
Description: as §1

[17] = tested on: winter barley (Hordeum vulgare)
Description: as §1

[18] = tested on: winter wheat (Triticum aestivum)
Description: as §1

Clc1cc(Cl)cc(-c2n[nH]cc2C(=NN2CCCC2)c2ccccc2)c1 [Compound 30, N-[[3-(3,5-dichlorophenyl)-1H-pyrazol-4-yl]phenylmethylene]-1-pyrrolidinamine]
35: Plant response rating, Buckwheat, Wild ([14]; 250 g ai/ha)
0: Plant response rating, Ryegrass, Italian ([1]; 16 g ai/ha) | Plant response rating, Ryegrass, Italian ([1]; 31 g ai/ha) | Plant response rating, Ryegrass, Italian ([1]; 62 g ai/ha) | Plant response rating, Ryegrass, Italian ([1]; 125 g ai/ha) | Plant response rating, Russian Thistle ([2]; 16 g ai/ha) | Plant response rating, Bluegrass ([3]; 16 g ai/ha) | Plant response rating, Bluegrass ([3]; 31 g ai/ha) | Plant response rating, Bluegrass ([3]; 62 g ai/ha) | Plant response rating, Bluegrass ([3]; 125 g ai/ha) | Plant response rating, Bluegrass ([3]; 250 g ai/ha) | Plant response rating, Canarygrass ([4]; 16 g ai/ha) | Plant response rating, Canarygrass ([4]; 31 g ai/ha) | Plant response rating, Canarygrass ([4]; 62 g ai/ha) | Plant response rating, Canarygrass ([4]; 125 g ai/ha) | Plant response rating, Chickweed ([5]; 16 g ai/ha) | Plant response rating, Chickweed ([5]; 31 g ai/ha) | Plant response rating, Deadnettle ([6]; 16 g ai/ha) | Plant response rating, Deadnettle ([6]; 31 g ai/ha) | Plant response rating, Deadnettle ([6]; 62 g ai/ha) | Plant response rating, Bromegrass, Downy ([7]; 16 g ai/ha) | Plant response rating, Bromegrass, Downy ([7]; 31 g ai/ha) | Plant response rating, Bromegrass, Downy ([7]; 62 g ai/ha) | Plant response rating, Bromegrass, Downy ([7]; 125 g ai/ha) | Plant response rating, Bromegrass, Downy ([7]; 250 g ai/ha) | Plant response rating, Field Violet ([8]; 16 g ai/ha) | Plant response rating, Field Violet ([8]; 31 g ai/ha) | Plant response rating, Galium ([9]; 16 g ai/ha) | Plant response rating, Galium ([9]; 31 g ai/ha) | Plant response rating, Galium ([9]; 62 g ai/ha) | Plant response rating, Galium ([9]; 125 g ai/ha) | Plant response rating, Galium ([9]; 250 g ai/ha) | Plant response rating, Foxtail, Green ([10]; 16 g ai/ha) | Plant response rating, Foxtail, Green ([10]; 31 g ai/ha) | Plant response rating, Foxtail, Green ([10]; 62 g ai/ha) | Plant response rating, Foxtail, Green ([10]; 125 g ai/ha) | Plant response rating, Foxtail, Green ([10]; 250 g ai/ha) | Plant response rating, Kochia (kochia (Kochia scoparia); 16 g ai/ha) | Plant response rating, Lambsquarters ([11]; 16 g ai/ha) | Plant response rating, Lambsquarters ([11]; 31 g ai/ha) | Plant response rating, Barley, Spring ([12]; 16 g ai/ha) | Plant response rating, Barley, Spring ([12]; 31 g ai/ha) | Plant response rating, Barley, Spring ([12]; 62 g ai/ha) | Plant response rating, Barley, Spring ([12]; 125 g ai/ha) | Plant response rating, Barley, Spring ([12]; 250 g ai/ha) | Plant response rating, Wheat, Spring ([13]; 16 g ai/ha) | Plant response rating, Wheat, Spring ([13]; 31 g ai/ha) | Plant response rating, Wheat, Spring ([13]; 62 g ai/ha) | Plant response rating, Wheat, Spring ([13]; 125 g ai/ha) | Plant response rating, Wheat, Spring ([13]; 250 g ai/ha) | Plant response rating, Buckwheat, Wild ([14]; 16 g ai/ha) | Plant response rating, Buckwheat, Wild ([14]; 31 g ai/ha) | Plant response rating, Windgrass ([16]; 16 g ai/ha) | Plant response rating, Windgrass ([16]; 31 g ai/ha) | Plant response rating, Windgrass ([16]; 62 g ai/ha) | Plant response rating, Windgrass ([16]; 125 g ai/ha) | Plant response rating, Windgrass ([16]; 250 g ai/ha) | Plant response rating, Barley, Winter ([17]; 16 g ai/ha) | Plant response rating, Barley, Winter ([17]; 31 g ai/ha) | Plant response rating, Barley, Winter ([17]; 62 g ai/ha) | Plant response rating, Barley, Winter ([17]; 125 g ai/ha) | Plant response rating, Barley, Winter ([17]; 250 g ai/ha) | Plant response rating, Wheat, Winter ([18]; 16 g ai/ha) | Plant response rating, Wheat, Winter ([18]; 31 g ai/ha) | Plant response rating, Wheat, Winter ([18]; 62 g ai/ha) | Plant response rating, Wheat, Winter ([18]; 125 g ai/ha)
5: Plant response rating, Buckwheat, Wild ([14]; 62 g ai/ha)
20: Plant response rating, Russian Thistle ([2]; 62 g ai/ha)
70: Plant response rating, Kochia (kochia (Kochia scoparia); 250 g ai/ha) | Plant response rating, Mustard, Wild ([15]; 125 g ai/ha)
40: Plant response rating, Russian Thistle ([2]; 125 g ai/ha) | Plant response rating, Chickweed ([5]; 125 g ai/ha) | Plant response rating, Kochia (kochia (Kochia scoparia); 125 g ai/ha) | Plant response rating, Lambsquarters ([11]; 125 g ai/ha)
10: Plant response rating, Ryegrass, Italian ([1]; 250 g ai/ha) | Plant response rating, Russian Thistle ([2]; 31 g ai/ha) | Plant response rating, Canarygrass ([4]; 250 g ai/ha) | Plant response rating, Chickweed ([5]; 62 g ai/ha) | Plant response rating, Deadnettle ([6]; 125 g ai/ha) | Plant response rating, Deadnettle ([6]; 250 g ai/ha) | Plant response rating, Field Violet ([8]; 62 g ai/ha) | Plant response rating, Field Violet ([8]; 125 g ai/ha) | Plant response rating, Kochia (kochia (Kochia scoparia); 31 g ai/ha)
75: Plant response rating, Chickweed ([5]; 250 g ai/ha)
30: Plant response rating, Kochia (kochia (Kochia scoparia); 62 g ai/ha) | Plant response rating, Lambsquarters ([11]; 62 g ai/ha)
90: Plant response rating, Wheat, Winter ([18]; 250 g ai/ha)
85: Plant response rating, Mustard, Wild ([15]; 250 g ai/ha)
50: Plant response rating, Russian Thistle ([2]; 250 g ai/ha) | Plant response rating, Lambsquarters ([11]; 250 g ai/ha)
60: Plant response rating, Mustard, Wild ([15]; 16 g ai/ha) | Plant response rating, Mustard, Wild ([15]; 31 g ai/ha) | Plant response rating, Mustard, Wild ([15]; 62 g ai/ha)
15: Plant response rating, Field Violet ([8]; 250 g ai/ha) | Plant response rating, Buckwheat, Wild ([14]; 125 g ai/ha)
